Results on 24 molecules are retold here after patent US9321760B2 (Merck Patent GmbH, priority 2011, dated 2016).

The target in the test is P70S6K (T412E mutant) (Homo sapiens (Human), UniProt P23443, T412E). The test can be described thus: P70S6K enzyme assay. Type of test: biochemical. The settings on record: 3 nM P70S6K T412E mutant, 24 μM ATP, 1 μM FITC-AHA-AKRRRLSSLRA-OH substrate peptide, 90 min at 25° C. In outline:
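IC50s come from mobility-shift separation of phospho-product from FITC-AHA-AKRRRLSSLRA-OH substrate (1 μM) after the reaction was quenched with 10 mM EDTA. The reaction used 3 nM T412E-mutant enzyme and 24 μM ATP, running 90 min at 25° C in 100 mM Hepes pH 7.5 buffer.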

Sequence of P70S6K (T412E mutant) (P23443 whole entry T412E): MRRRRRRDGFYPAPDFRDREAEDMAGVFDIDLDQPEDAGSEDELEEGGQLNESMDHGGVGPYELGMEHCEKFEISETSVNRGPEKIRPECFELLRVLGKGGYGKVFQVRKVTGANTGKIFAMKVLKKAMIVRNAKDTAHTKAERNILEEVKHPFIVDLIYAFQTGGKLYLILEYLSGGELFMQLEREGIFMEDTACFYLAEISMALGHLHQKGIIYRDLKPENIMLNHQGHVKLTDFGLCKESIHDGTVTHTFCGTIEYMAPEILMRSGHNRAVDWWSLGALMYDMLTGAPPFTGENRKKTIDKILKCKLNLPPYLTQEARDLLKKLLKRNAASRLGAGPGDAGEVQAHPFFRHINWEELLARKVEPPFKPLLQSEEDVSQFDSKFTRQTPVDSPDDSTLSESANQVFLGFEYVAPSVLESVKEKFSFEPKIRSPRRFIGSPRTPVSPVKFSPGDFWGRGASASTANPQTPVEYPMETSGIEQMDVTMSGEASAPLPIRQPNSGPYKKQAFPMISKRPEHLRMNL

As to `Nc1ncnc(N2CCC(N)(CNC(=O)c3ccc(F)cc3F)C2)c1-c1cccc(F)c1` (stereo not drawn) [Example 204, N-{3-Amino-1-[6-amino-5-(3-fluoro-phenyl)-pyrimidin-4-yl]-pyrrolidin-3-ylmethyl}-2,4-difluoro-benzamide], 2.6 nM corresponded to half-maximal inhibition (IC50). The molecule `Nc1ncnc(N2CCC(N)(CNC(=O)c3ccc(F)cc3F)C2)c1-c1ccncc1` (stereo not drawn) [Example 205, N-[3-Amino-1-(6-amino-5-pyridin-4-yl-pyrimidin-4-yl)-pyrrolidin-3-ylmethyl]-2,4-difluoro-benzamide] gave a half-maximal inhibitory concentration (IC50) of 25 nM.

Take `Nc1ncnc(N2CCC(N)(CNC(=O)c3ccc(F)cc3F)C2)c1-c1ccc(N2CCNCC2)nc1` (stereo not drawn) [Example 206, N-{3-Amino-1-[6-amino-5-(6-piperazin-1-yl-pyridin-3-yl)-pyrimidin-4-yl]-pyrrolidin-3-ylmethyl}-2,4-difluoro-benzamide]: the IC50 was 1000 nM. For `Nc1ncnc(N2CCC(N)(CNC(=O)c3ccc(F)cc3F)CC2)c1Br` [Example 207, N-[4-Amino-1-(6-amino-5-bromo-pyrimidin-4-yl)-piperidin-4-ylmethyl]-2,4-difluoro-benzamide], the midpoint of inhibition, the IC50, lay at 150 nM.

In turn, `Nc1ncnc(N2CCC(N)(CNC(=O)c3ccc(F)cc3F)CC2)c1-c1ccc(F)cc1` [Example 208, N-{4-Amino-1-[6-amino-5-(4-fluoro-phenyl)-pyrimidin-4-yl]-piperidin-4-ylmethyl}-2,4-difluoro-benzamide] yielded a half-inhibitory concentration (IC50) of 46 nM.

`CCc1c(N)ncnc1N1CCC(N)(C(=O)N[C@@H](CCO)c2ccc(Cl)cc2)CC1` [Example 214, 4-Amino-1-(6-amino-5-ethyl-pyrimidin-4-yl)-piperidine-4-carboxylic acid [(S)-1-(4-chloro-phenyl)-3-hydroxy-propyl]-amide] displayed a 50% inhibitory concentration (IC50) of 450 nM. In turn, `CC[C@H](NC(=O)C1(N)CCN(c2ncnc(N)c2Cl)CC1)c1ccc(Cl)cc1` [Example 215, 4-Amino-1-(6-amino-5-chloro-pyrimidin-4-yl)-piperidine-4-carboxylic acid [(S)-1-(4-chloro-phenyl)-propyl]-amide] yielded a concentration for half-maximal inhibition (IC50) of 190 nM.

Molecule `Nc1ncnc(N2CCC(N)(C(=O)N[C@H](c3ccc(Cl)cc3)C(F)(F)F)CC2)c1Cl` [Example 216, 4-Amino-1-(6-amino-5-chloro-pyrimidin-4-yl)-piperidine-4-carboxylic acid [(R)-1-(4-chloro-phenyl)-2,2,2-trifluoroethyl]-amide] gave a 50% inhibitory concentration (IC50) of 820 nM. In the case of `NC(=O)C[C@H](NC(=O)C1(N)CCN(c2ncnc(N)c2Cl)CC1)c1ccc(Cl)cc1` [Example 217, 4-Amino-1-(6-amino-5-chloro-pyrimidin-4-yl)-piperidine-4-carboxylic acid [(S)-2-carbamoyl-1-(4-chloro-phenyl)ethyl]-amide], the half-inhibitory concentration (IC50) was determined as 820 nM.

`C[C@H](NC(=O)C1(N)CCN(c2ncnc(N)c2C#N)CC1)c1ccc(Cl)cc1` [Example 218, 4-Amino-1-(6-amino-5-cyano-pyrimidin-4-yl)-piperidine-4-carboxylic acid [(S)-1-(4-chloro-phenyl)-ethyl]-amide] came in with a half-inhibitory concentration (IC50) of 200 nM. In the case of `CC[C@H](NC(=O)C1(N)CCN(c2ncnc(N)c2C#N)CC1)c1ccc(Cl)cc1` [Example 219, 4-Amino-1-(6-amino-5-cyano-pyrimidin-4-yl)-piperidine-4-carboxylic acid [(S)-1-(4-chloro-phenyl)-propyl]-amide] it was 140 nM; in that of `N#Cc1c(N)ncnc1N1CCC(N)(C(=O)N[C@H](c2ccc(Cl)cc2)C(F)(F)F)CC1` [Example 220], 3200 nM. In the case of `N#Cc1c(N)ncnc1N1CCC(N)(C(=O)N[C@@H](CC(N)=O)c2ccc(Cl)cc2)CC1` [Example 221, 4-Amino-1-(6-amino-5-cyano-pyrimidin-4-yl)-piperidine-4-carboxylic acid [(S)-2-carbamoyl-1-(4-chloro-phenyl)-ethyl]-amide] it was 140 nM.

Turning to `C[C@H](NC(=O)C1(N)CCN(c2ncnc(N)c2Cl)CC1)c1ccc(Cl)cc1` [Example 222, 4-Amino-1-(6-amino-5-chloro-pyrimidin-4-yl)-piperidine-4-carboxylic acid [(S)-1-(4-chloro-phenyl)-ethyl]-amide], the IC50 is 620 nM. In the case of `Nc1ncnc(N2CCC(N)(C(=O)N[C@@H](CCO)c3ccc(C(F)(F)F)cc3)CC2)c1Cl` [Example 223, 4-Amino-1-(6-amino-5-chloro-pyrimidin-4-yl)-piperidine-4-carboxylic acid [(S)-3-hydroxy-1-(4-trifluoromethyl-phenyl)-propyl]-amide] it was 22000 nM; in that of `C[C@H](NC(=O)C1(N)CCN(c2ncnc(N)c2-c2cn[nH]c2)CC1)c1ccc(Cl)cc1` [Example 224, 4-Amino-1-[6-amino-5-(1H-pyrazol-4-yl)-pyrimidin-4-yl]-piperidine-4-carboxylic acid [(S)-1-(4-chloro-phenyl)-ethyl]-amide], 87 nM. The molecule `CC[C@H](NC(=O)C1(N)CCN(c2ncnc(N)c2-c2cn[nH]c2)CC1)c1ccc(Cl)cc1` [Example 225, 4-Amino-1-[6-amino-5-(1H-pyrazol-4-yl)-pyrimidin-4-yl]-piperidine-4-carboxylic acid [(S)-1-(4-chloro-phenyl)-propyl]-amide] had an IC50 of 78 nM. In the case of `N#Cc1c(N)ncnc1N1CCC(N)(C(=O)N[C@@H](CCO)c2ccccc2)CC1` [Example 226, 4-Amino-1-(6-amino-5-cyano-pyrimidin-4-yl)-piperidine-4-carboxylic acid ((S)-3-hydroxy-1-phenyl-propyl)-amide], the midpoint of inhibition, the IC50, lay at 820 nM.

As for `Cc1ccc([C@H](CCO)NC(=O)C2(N)CCN(c3ncnc(N)c3C#N)CC2)cc1` [Example 227, 4-Amino-1-(6-amino-5-cyano-pyrimidin-4-yl)-piperidine-4-carboxylic acid ((S)-3-hydroxy-1-p-tolyl-propyl)-amide], the concentration for half-maximal inhibition (IC50) stood at 280 nM. In the case of `Nc1ncnc(N2CCC(N)(C(=O)N[C@@H](CCO)c3ccccc3)CC2)c1Cl` [Example 228, 4-Amino-1-(6-amino-5-chloro-pyrimidin-4-yl)-piperidine-4-carboxylic acid ((S)-3-hydroxy-1-phenyl-propyl)-amide] it was 2800 nM; in that of `COc1ccc([C@H](CCO)NC(=O)C2(N)CCN(c3ncnc(N)c3C#N)CC2)cc1` [Example 229, 4-Amino-1-(6-amino-5-cyano-pyrimidin-4-yl)-piperidine-4-carboxylic acid [(S)-3-hydroxy-1-(4-methoxy-phenyl)-propyl]-amide], 450 nM. The molecule `N#Cc1c(N)ncnc1N1CCC(N)(C(=O)N[C@@H](CCO)c2ccc(C(F)(F)F)cc2)CC1` [Example 230, 4-Amino-1-(6-amino-5-cyano-pyrimidin-4-yl)-piperidine-4-carboxylic acid [(S)-3-hydroxy-1-(4-trifluoromethyl-phenyl)-propyl]-amide] showed a half-inhibitory concentration (IC50) of 18000 nM. Next, `N#Cc1c(N)ncnc1N1CCC(N)(C(=O)N[C@@H](CCO)c2ccncc2)CC1` [Example 231, 4-Amino-1-(6-amino-5-cyano-pyrimidin-4-yl)-piperidine-4-carboxylic acid ((S)-3-hydroxy-1-pyridin-4-yl-propyl)-amide]: 3600 nM.

`Cc1ccc([C@H](CCO)NC(=O)C2(N)CCN(c3ncnc(N)c3C(N)=O)CC2)cc1` [Example 232, 4-Amino-6-[4-amino-4-((S)-3-hydroxy-1-p-tolyl-propylcarbamoyl)-piperidin-1-yl]-pyrimidine-5-carboxylic acid amide]: the half-inhibitory concentration (IC50) came out at 23000 nM.
